Substitutions are numbered along the chain they refer to. Values joined by “and” are separate entries in the source; they are usually repeats but may differ in a detail not shown here. Identical values can stand only once. Values belong to the compound of their own block, whether it stands above or below them.
Legend:
[1] = tested on: BMP2-induced luciferase activity in 293T-BRE-reporter cells; assay: BMP2-induced luciferase reporter activity in 293T-BRE reporter cells; assay type: cell-based; conditions: 30 min pre-treatment, 5 ng/ml BMP2, 6 hours
Method: BMP2-dependent luciferase reporter activation was quantified after 6 hours using the Promega BrightGLO luciferase system on a Tecan Infinity M1000 Pro plate reader.
FIG. 10 provides a bar graph depicting inhibition of BMP2-induced luciferase activity in 293T-BRE-reporter cells. Approximately 20,000 cells per well were plated in a 96-well plate and allowed to attach overnight. […] Cells were then stimulated with vehicle or 5 ng/ml BMP2 for 6 hours. Luciferase transactivation was assessed using the Promega BrightGLO luciferase system (Promega) and the signal was quantified using a plate reader (M1000 Pro).

[2] = Metabolic stability in mouse liver microsomes; assay type: in vitro ADME; conditions: some cells add hours in brackets
Excerpt: (§1) Exemplary compounds of the present disclosure have been evaluated for metabolic stability in mouse and human liver microsomes.

ACVR1^WT = target: T1, ACVR1^WT (Homo sapiens, UniProt Q04771); assay: Promega NanoBRET live-cell target engagement, ACVR1; assay type: cell-based; conditions: in cellulo; NI = No inhibition at 40 μM
T1 sequence (Q04771 21-509): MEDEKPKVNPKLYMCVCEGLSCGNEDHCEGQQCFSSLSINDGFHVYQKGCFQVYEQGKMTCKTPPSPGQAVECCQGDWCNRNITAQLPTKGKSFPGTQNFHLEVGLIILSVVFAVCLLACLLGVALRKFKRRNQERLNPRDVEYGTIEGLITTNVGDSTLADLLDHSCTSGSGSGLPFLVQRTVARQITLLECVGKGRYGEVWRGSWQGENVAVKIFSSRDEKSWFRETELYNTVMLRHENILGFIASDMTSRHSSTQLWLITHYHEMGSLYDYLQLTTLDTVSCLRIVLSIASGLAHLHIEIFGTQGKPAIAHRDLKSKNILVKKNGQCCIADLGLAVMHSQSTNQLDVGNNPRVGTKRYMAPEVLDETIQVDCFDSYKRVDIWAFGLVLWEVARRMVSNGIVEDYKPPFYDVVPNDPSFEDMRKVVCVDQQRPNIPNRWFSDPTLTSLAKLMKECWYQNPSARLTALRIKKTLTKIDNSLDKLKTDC
Excerpt: (§2) The Promega NanoBRET target engagement system involves cell-based competitive displacement of a fluorescent NanoBRET tracer bound reversibly to a NanoLuc fusion protein. Test compounds displace the tracer dependent on their affinity for the target and reduce […] the NanoBRET signal. […]

BMPR1A = target: T2, BMPR1A (Homo sapiens, UniProt P36894); assay: ThermoFisher Lantha kinase screen, BMPR1A; assay type: biochemical; conditions: in vitro
T2 construct: purchased ThermoFisher
T2 sequence (P36894 24-532): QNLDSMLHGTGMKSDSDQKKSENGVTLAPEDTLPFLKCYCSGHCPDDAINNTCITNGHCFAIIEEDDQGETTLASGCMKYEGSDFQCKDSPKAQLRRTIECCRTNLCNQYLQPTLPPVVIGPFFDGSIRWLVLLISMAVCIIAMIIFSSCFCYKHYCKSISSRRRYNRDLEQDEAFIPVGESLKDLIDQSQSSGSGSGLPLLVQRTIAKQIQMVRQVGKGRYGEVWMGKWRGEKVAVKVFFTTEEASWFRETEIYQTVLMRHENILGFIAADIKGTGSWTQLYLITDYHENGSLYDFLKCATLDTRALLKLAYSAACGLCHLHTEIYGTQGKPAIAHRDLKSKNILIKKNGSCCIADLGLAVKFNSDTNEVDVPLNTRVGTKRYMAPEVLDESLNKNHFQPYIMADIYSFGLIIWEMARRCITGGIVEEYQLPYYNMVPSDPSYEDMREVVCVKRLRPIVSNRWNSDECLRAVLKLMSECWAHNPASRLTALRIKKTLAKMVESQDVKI
Excerpt: (§3) FIGS. 3A-3B depict a representation of KINOMEscan (Eurofins) binding data of CDD-2342 across the human kinome phylogenetic tree (FIG. 3A) and ThermoFisher Lantha kinase screen (FIG. 3B). FIG. 3A: The size of the circles (indicated with lines) are correlated with the affinity of ligand binding (i.e., larger circle, greater binding affinity). […] FIG. 3B: Using the ThermoFisher Lantha kinase screening assay, kinase specificity for ACVR1>ACVRL1>>BMPR1A>BMPR1B was observed.
(§4) Additionally, CDD-2342 is a >1000-fold better inhibitor of ACVR1 than non-TGFβ family kinases (FIGS. 3A-3B).

ACVRL1 [3] = target: T3, ACVRL1 (Homo sapiens, UniProt P37023); assay: Promega NanoBRET live-cell target engagement, ACVRL1; assay type: cell-based; conditions: in cellulo; NI = No inhibition at 40 μM
T3 construct: purchased ThermoFisher
T3 sequence (P37023 22-503): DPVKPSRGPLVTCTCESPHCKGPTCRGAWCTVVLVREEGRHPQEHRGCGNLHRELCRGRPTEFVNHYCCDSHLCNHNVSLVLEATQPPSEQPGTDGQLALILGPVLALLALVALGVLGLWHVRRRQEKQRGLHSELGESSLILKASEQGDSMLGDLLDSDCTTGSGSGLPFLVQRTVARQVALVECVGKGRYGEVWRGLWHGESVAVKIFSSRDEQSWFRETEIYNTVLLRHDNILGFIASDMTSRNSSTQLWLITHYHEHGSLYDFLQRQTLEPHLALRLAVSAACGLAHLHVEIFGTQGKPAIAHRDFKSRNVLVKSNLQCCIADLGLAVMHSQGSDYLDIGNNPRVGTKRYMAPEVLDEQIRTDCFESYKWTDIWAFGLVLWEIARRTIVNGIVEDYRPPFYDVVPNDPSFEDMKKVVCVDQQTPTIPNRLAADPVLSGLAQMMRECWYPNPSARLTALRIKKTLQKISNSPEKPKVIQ
Excerpt: The Promega NanoBRET target engagement system involves cell-based competitive displacement of a fluorescent NanoBRET tracer bound reversibly to a NanoLuc fusion protein. Test compounds displace the tracer dependent on their affinity for the target and reduce loss of the NanoBRET signal.
Further, HEK29T cells with stable expression of a BMP reporter element driving luciferase expression can be used to test inhibition of BMP-induced luciferase transactivation. […] Additionally, utilizing the HEPG2 cell system described herein, responsiveness to activin and induction of Hepcidin (HAMP) gene expression can be probed in the presence and absence of ACVR1 inhibitors, as well as the influence of tacrolimus on activin-induced hepcidin gene expression.
Thus, the in cellulo assays described herein comprise a luciferase reporter cell line system.

human kinome = assay: KINOMEscan (Eurofins) binding across the human kinome; conditions: tested at a dose of 1 μM
Excerpt: as §3

BMPR1B = target: T4, BMPR1B (Homo sapiens, UniProt O00238); assay: ThermoFisher Lantha kinase screen, BMPR1B; assay type: biochemical; conditions: in vitro
T4 construct: purchased ThermoFisher
T4 sequence (O00238 14-502): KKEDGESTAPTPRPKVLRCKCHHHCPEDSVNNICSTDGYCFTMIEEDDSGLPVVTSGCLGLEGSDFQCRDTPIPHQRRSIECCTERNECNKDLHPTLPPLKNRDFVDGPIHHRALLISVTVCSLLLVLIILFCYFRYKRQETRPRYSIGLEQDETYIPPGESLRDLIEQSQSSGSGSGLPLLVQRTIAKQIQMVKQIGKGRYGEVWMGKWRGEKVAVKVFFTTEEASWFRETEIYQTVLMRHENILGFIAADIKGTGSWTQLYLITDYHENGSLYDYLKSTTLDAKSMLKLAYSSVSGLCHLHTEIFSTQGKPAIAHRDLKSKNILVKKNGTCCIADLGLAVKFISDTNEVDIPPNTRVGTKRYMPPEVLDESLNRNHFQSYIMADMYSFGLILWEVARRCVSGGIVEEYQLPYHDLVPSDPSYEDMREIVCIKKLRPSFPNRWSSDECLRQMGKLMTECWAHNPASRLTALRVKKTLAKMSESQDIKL
Excerpt: as §3, §4

ACVR1 = target: T5, ACVR1 (Homo sapiens, UniProt Q04771); assay: ThermoFisher (Lantha) kinase assay, inhibition of ACVR1; assay type: biochemical
T5 construct: purchased ThermoFisher
T5 sequence (Q04771 21-509): T1 sequence (Q04771 21-509)

ACVRL1 [4] = target: T3, ACVRL1; assay: ThermoFisher (Lantha) kinase assay, inhibition of ACVRL1; assay type: biochemical; conditions: in vitro, NA = not active at 1 μM
[5] = Metabolic stability in human liver microsomes; assay type: in vitro ADME; conditions: some cells add hours in brackets
Excerpt: as §1

ACVR1^R206H = target: T6, ACVR1^R206H (Homo sapiens, UniProt Q04771, R206H); assay: Promega NanoBRET live-cell target engagement, ACVR1 (R206H); assay type: cell-based; conditions: in cellulo; NI = No inhibition at 40 μM
T6 sequence (Q04771 21-509 R206H): T1 sequence (Q04771 21-509) with R186H
Excerpt: as §2

[6] = tested on: pSMAD1/5 in FOP fibroblasts (FOP GM00513); assay: BMP2-induced pSMAD1/5 Western blot in primary FOP fibroblasts; assay type: cell-based, human; conditions: 1, 5, 25 μM, 30 min pre-treatment, 5 ng/mL BMP2 45 min
Method: (§5) FIG. 11 depicts inhibition of phosphorylated SMAD1/5 (pSMAD1/5) in primary WT and FOP fibroblasts. […] Subsequently, the fibroblasts were treated with vehicle (i.e., DMSO) or 5 ng/mL BMP2 in the presence of the inhibitors for 45 minutes. Cell lysates were then probed with antibodies against pSMAD1/5, total SMAD5, total SMAD1, and GAPDH (i.e., loading control) using a Western blot.

[7] = Pharmacokinetic study in mice, oral gavage; conditions: mouse, in vivo, 50 mg/kg oral gavage, n = 4, mean ± SD
Excerpt: (§6) The present disclosure further provides exemplary pharmacokinetic data for compound CDD-2789.

[8] = Plasma ALT and AST levels in mice after treatment; assay type: in vivo; conditions: 24 h post-administration, individual mice No. 1-4
Excerpt: as §6

[9] = tested on: pSMAD1/5 in WT fibroblasts (WT GM01652); assay: BMP2-induced pSMAD1/5 Western blot in primary WT fibroblasts; assay type: cell-based, human; conditions: 1, 5, 25 μM, 30 min pre-treatment, 5 ng/mL BMP2 45 min
Method: as §5

HepG2 cells = assay: Cytotoxicity in HepG2 cells (Cell Titer GLO, cellular ATP); assay type: cell-based; conditions: 24 hours, concentrations up to 100 μM

Structure (SMILES): COc1cc(-c2nc3ccc(C(=O)NCCCN4CCN(c5cccc(C)c5C)CC4)cc3n2C2CCC2)cc(OC)c1OC [CDD-2342, 1-cyclobutyl-N-(3-(4-(2,3-dimethylphenyl)piperazin-1-yl)propyl)-2-(3,4,5-trimethoxyphenyl)-1H-benzo[d]imidazole-6-carboxamide]
inhibition of BMP2-induced reporter activity ([1]; 1 μM, 5 μM, 10 μM): significantly inhibits
Metabolism MLM [2]: 0 min
IC50 (ACVR1^WT): 830 nM and 810 nM
IC50 (BMPR1A): 257 nM
IC50 (ACVRL1 [3]): 11.1 µM and 11.4 µM
off-target binding across the human kinome (human kinome): minimal off-target binding
IC50 (BMPR1B): 687 nM
fold better inhibitor of ACVR1 than non-TGFβ family kinases (ACVR1; FIGS. 3A-3B): > 1000 fold
IC50 (ACVR1; ThermoFisher Assay, in vitro): 6.1 nM
kinase specificity (rank order) (ACVR1; ThermoFisher Lantha kinase screening assay, FIG. 3B): ACVR1>ACVRL1>>BMPR1A>BMPR1B
IC50 (ACVRL1 [4]): 18.8 nM
Metabolism HLM [5]: 0.5 min
IC50 (ACVR1^R206H): 1470 nM and 1480 nM

Metabolism MLM (Min) [2]: 505 (8.4 h) Min
half-life [7]: ~205 min
IC50 (ACVRL1 [4]): 9.9 nM
Metabolism HLM (Min) [5]: 2767 (46.1 h) Min
Structure (SMILES): COc1cc(-c2nc3ccc(C(=O)NCCCN(C)C)cc3n2C2CCC2)cc(OC)c1OC [CDD-2789, 1-cyclobutyl-N-(3-(dimethylamino)propyl)-2-(3,4,5-trimethoxyphenyl)-1H-benzo[d]imidazole-6-carboxamide]
inhibition of BMP2-induced luciferase activity ([1]; 0.2, 1, 5, 25 μM): Potent inhibition
suppression of BMP2-induced pSMAD1/5 activation, FOP fibroblasts [6]: suppressed
Plasma ALT [8]: 21.83 IU/L and 165.48 IU/L and 25.81 IU/L and 23.60 IU/L
Plasma AST [8]: 30.76 IU/L and 141.26 IU/L and 42.08 IU/L and 55.52 IU/L
suppression of BMP2-induced pSMAD1/5 activation, WT fibroblasts [9]: suppressed
cytotoxicity (cell viability, cellular ATP) (HepG2 cells): no cytotoxicity

Reference: patent publication US20260217660A1, “INHIBITORS OF ACTIVIN RECEPTOR TYPE I (ACVRI) AND ACTIVIN RECEPTOR LIKE TYPE I (ACVRLI), AND METHODS USING SAME” (Baylor College of Medicine, priority 2023, published 2026)
